Usually Ki stands for the dissociation constant of the complex between target and ligand, obtained from inhibition or displacement. Low values mean a stronger hold on the target, high ones a looser hold on the target.

The record followed here is BindingDB's records for doi:10.7270/Q24J0CNF (Chevron Chemical, 1990).

The assay concerns the target Glutamine synthetase (Homo sapiens, UniProt P15104). The experiment in a line: Enzyme Assay. To be noted: pH 7. The procedure: The enzyme was assayed at pH 7.0 using the pyruvate kinase/lactate dehydroenase coupling system.

Chain of Glutamine synthetase (P15104 whole entry): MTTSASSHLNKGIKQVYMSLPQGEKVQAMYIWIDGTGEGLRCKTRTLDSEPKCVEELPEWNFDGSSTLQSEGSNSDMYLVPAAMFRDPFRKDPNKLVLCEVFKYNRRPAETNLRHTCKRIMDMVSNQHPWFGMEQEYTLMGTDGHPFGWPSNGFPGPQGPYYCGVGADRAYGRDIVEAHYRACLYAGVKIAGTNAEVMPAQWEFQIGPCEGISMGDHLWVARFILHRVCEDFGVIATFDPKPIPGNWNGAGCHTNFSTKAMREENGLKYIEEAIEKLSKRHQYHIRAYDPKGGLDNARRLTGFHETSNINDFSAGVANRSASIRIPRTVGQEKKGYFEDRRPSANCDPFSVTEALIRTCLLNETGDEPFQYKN

Turning to `CP(=O)(O)CCC(N)C(=O)O` (stereo not drawn) [Phosphinothricin analog, 1 (L Isomer)], the Ki was 0.00022 µM. This lies in the sub-nanomolar range.

In turn, `CC(CC(N)C(=O)O)P(C)(=O)O` (configuration not stated) [Phosphinothricin analog, 2 (D,L mixture)] yielded a Ki of 0.14 µM.
